Reference: patent US20090123447A1, “COMPOSITIONS AND METHODS TO INHIBIT RNA VIRAL REPRODUCTION” (priority 2007, published 2009)
Like-named read-outs stand apart in the source and are kept apart here.

Experiments:
[1] = test system: subgenomic HCV replicon of genotype 1b; test: microbe, parasite or virus in culture; type: cell-based, hepatitis C virus
Procedure: Huh7 human hepatoma cells were cultured in Dulbecco's modified Eagle medium (DMEM; Invitrogen, Carlsbad, Calif., USA) supplemented with 10% fetal bovine serum (FBS; Invitrogen), 100 units/ml of penicillin, and 100 μg/ml of streptomycin in a 5% CO2 incubator. SgPC2 cells are G418-selected, pooled Huh7 cell clones that support the continuous replication of a subgenomic HCV replicon of genotype 1b and [29] (GenBank Accession No. AJ242652) that carries a S11791 adaptive mutation within the NS5A region. SgPC2 cells were maintained in the above medium supplemented with 0.5 mg/ml G418 (Invitrogen). G418 was removed at least 1 day before cell treatments.

[2] = test system: newly synthesized HCV RNA; test: 3H labeling of newly synthesized HCV RNA in SgPC2 cells; type: cell-based, hepatitis C virus; settings: 6 h
Procedure: One million SgPC2 cells were pretreated with 2 μM BAPTA-AM or DMSO alone for 1 h and then treated with 0 or 100 μM H2O2 in the presence of 100 μCi of [^3H]uridine (35-50 Ci/mmol; MP Biomedicals, Irvine, Calif., USA) and 4 μg/ml actinomycin D (Sigma-Aldrich) for 5 to 6 h and then lysed for the RNA isolation. RNA was analyzed on a 1% formaldehyde agarose gel, which was then treated with 1 M sodium salicylate for 20-30 min for fluorography. The RNA gel was also stained with ethidium bromide to visualize rRNA bands to serve as loading controls.

[3] = test system: HCV replication complex (RC); test: In vitro HCV replication assay with cytoplasmic lysates of SgPC2 cells; type: cell-based, hepatitis C virus; settings: for effect on the suppression of in vitro HCV replication by H2O2: pretreatment of SgPC2 cells before H2O2
Procedure: In vitro replication assay was carried out according to the protocol of Ali et al., with slight modifications. Briefly, SgPC2 cells were grown to approximately 50-60% confluence in 100-mm dishes. Then, […], and cytoplasmic lysates were prepared by gently lysing the cells in the incomplete replication buffer (prepared without dithiothreitol) immediately after treating the cells with lysolecithin-containing washing solution (150 mM sucrose, 30 mM Hepes, pH 7.4, 33 mM ammonium chloride, 7 mM KCl, 4.5 mM magnesium acetate, 250 μg/ml lysolecithin) for 1-2 min. Twenty to 50 μCi of [α-^32P]CTP (3000 Ci/mmol) and 1-2 μg of actinomycin D were added to 70 μl of these cytoplasmic lysates, and the replication reaction was allowed to proceed for 1 h at 30° C. Then, RNA was isolated by phenol:chloroform extraction and ethanol precipitation. The ^32P-labeled transcripts were then analyzed on a 1% formaldehyde agarose gel which was subsequently washed with H2O, dried, and analyzed with a phosphoimager.

full-length NS5B = biological target: T1, full-length NS5B (Hepatitis C virus genotype 1b, UniProt P26663); test: NS5B RdRp assay, de novo RNA synthesis in vitro; type: biochemical
T1 construct: Full-length NS5B protein was purified from Escherichia coli; made in house; host or cells: Escherichia coli
From the text: Full-length NS5B protein was purified from Escherichia coli, as previously described, and was used to catalyze de novo RNA synthesis in vitro [36].

JFH1 HCV (genotype 2a) = type: cell-based, hepatitis C virus
Procedure: For viral RNA transfection, JFH1, JFH1/GND, and pSGR-JFH1-Luc were linearized with XbaI and used to synthesize the corresponding positive-sense stranded HCV RNA, as previously described (68). Then, 5×10^6 Huh7 cells were rinsed with Opti-Mem (Invitrogen), mixed briefly with 10-20 μg of the in vitro transcribed RNA in 0.4 ml of Opti-Mem, and then electroporated at 260 volts and 950 μF. […] Medium was changed daily. For infection with HCV, medium collected from JFH1 RNA-transfected cells were cleared of cell debris, as described, and added to naïve Huh7 cells. Typically, 1:2 or 3:2 ratio of the virus-containing medium and fresh cell culture medium were used.
JFH1/GND was used as the negative control. When L-buthionine S,R-sulfoximine (BSO) was used, the cells were pretreated with BSO for 16-24 hrs prior to the initiation of treatments.
Intracellular JFH1 HCV RNA content was also analyzed by qRT-PCR (Taqman), using ABI7300 real time PCR system and one step RT-PCR kit from Applied Biosystems. The forward primer was 5′-[…]-3′ (nt. 146 to 164) and the reverse primer, 5′-[…]-3′ (nt. 277 to 295). The probe was 5′[…]3′ (nt. 168 to 188) and was fluorogenically labeled with FAM (5′) and TAMRA (3′) (Biosearch Technologies, Novato, Calif.). Briefly, the reactions were carried out at 48° C. for 30 min for reverse transcription, followed by denaturation at 95° C. for 10 min, and then 50 cycles of 15 sec denaturation at 95° C. plus 60 sec of annealing and extension at 60° C. All samples were analyzed in duplicates or triplicates. In vitro RNA transcripts were used to generate standard curve to determine RNA copy numbers. The level of 18S rRNA was also analyzed, using manufacturer-optimized protocol, as the control.
To analyze the amount of the extracellular HCV RNA, medium from the cells were cleared by low-speed centrifugation and then, treated with RNaseA at room temperature. Then, the RNA samples were extracted, using Trizol LS Reagent (Invitrogen), and analyzed for HCV RNA content by qRT-PCR.

[4] = test system: intracellular calcium concentration ([Ca^2+]i); test: [Ca^2+]i measurement with Indo-1 AM in SgPC2 cells; type: cell-based, human; settings: for change in [Ca^2+]i: SgPC2 cells
Procedure: Briefly, on the day of the experiment, cells were washed in Krebs-Ringer phosphate buffer (KRPH; pH 7.4, containing 1.0 mM MgSO4, 1.3 mM CaCl2, 10 mM Hepes, 5 mM glucose, 125 mM NaCl, 5 mM KCl, and 10 mM sodium phosphate) and subsequently loaded with 10-20 μM Indo-1 AM (70 μl/coverslip; Molecular Probes, Inc., Eugene, Oreg., USA) containing 10 μM probenecid (Molecular Probes) for 30 min at 37° C. The attached cells were washed and bathed in KRPH/probenecid at 4° C. or room temperature until further analysis. Then, coverslips were individually submerged into KRPH and preequilibrated inside the […] fluorimeter (Hitachi) in darkness for 3 min, and [Ca^2+]i was monitored continuously at 37° C., with excitation at […] and emission at 400 and 450 nm. H2O2 and other agents were injected at different time points, as indicated under Results. [Ca^2+]i was calculated as described. Rmax was determined by adding 8-16 μM digitonin and Rmin with 10 mM ethylene glycol-bis(β-aminoethyl)-N,N,N'-tetraacetic acid (EGTA). […] The baseline, which represented unstimulated cells scanned over time, was plotted along with other measurements or subtracted from the other plots. Cells were serum-depleted, 1 day before the experiment, by incubating them overnight in DMEM plus 0.5% FBS. […] Then, CaCl2 was added before determining the Rmax for each run.

SgPC2 cells [5] = test system: SgPC2 cells
Procedure: Intracellular GSH concentration was determined using a GSH recycling assay and expressed as nmol/mg protein. ATP level was measured using the Somatic Cell ATP assay kit from Sigma-Aldrich, as previously described. Protein level was determined with a bicinchoninic acid kit (Pierce Biotechnology, Inc., Rockford, Ill., USA).

SgPC2 cells [6] = settings: JC-1 and annexin V-FITC staining
Procedure: Mitochondrial membrane potential was measured with JC1, using a Guava cytometer (Guava Technologies, Inc.). Apoptosis was also monitored with annexin V-FITC, with a 96-Nexin kit from Guava Technologies, Inc.

genomic HCV RNA = settings: Huh7 cells transfected with genomic HCV RNA, H2O2 24 h
Procedure: Then, 5×10^6 Huh7 cells were rinsed with DMEM, mixed briefly with 10-20 μg of the subgenomic replicon RNA in 0.4 ml of DMEM, and then electroporated at 220 V and 975 μF. Then, 1 million cells were seeded onto 60-mm cell culture dishes in DMEM containing 10% FBS. Medium was changed daily and, after 2-4 days, the cells were preincubated with 1,2-bis(2-aminophenoxy)ethane-N,N,N′,N′-tetraacetic acid tetrakis acetoxymethyl ester (BAPTA-AM) or vehicle control alone for 1 h. Then, the cells were exposed to H2O2 for 24 h, and the amount of the HCV RNA was analyzed by Northern blot (see below).
Total RNA was extracted from cells, using Trizol reagent (Invitrogen), following the manufacturer's protocol. Five to 20 μg of RNA was then subjected to Northern blot analysis using a ^32P-labeled double-stranded DNA probe prepared from nt 3669 to nt 6016 of the subgenomic replicon. For these and all other experiments, RNA and protein bands were quantified with a phosphoimager (Cyclone; Perkin-Elmer) or by densitometry using SigmaScan (Jandel Scientific) or IS2000R (Kodak). The intensities of the bands of interest were normalized against the control glyceraldehyde-3-phosphate dehydrogenase (GAPDH) mRNA.

T1 sequence (P26663 2420-3010): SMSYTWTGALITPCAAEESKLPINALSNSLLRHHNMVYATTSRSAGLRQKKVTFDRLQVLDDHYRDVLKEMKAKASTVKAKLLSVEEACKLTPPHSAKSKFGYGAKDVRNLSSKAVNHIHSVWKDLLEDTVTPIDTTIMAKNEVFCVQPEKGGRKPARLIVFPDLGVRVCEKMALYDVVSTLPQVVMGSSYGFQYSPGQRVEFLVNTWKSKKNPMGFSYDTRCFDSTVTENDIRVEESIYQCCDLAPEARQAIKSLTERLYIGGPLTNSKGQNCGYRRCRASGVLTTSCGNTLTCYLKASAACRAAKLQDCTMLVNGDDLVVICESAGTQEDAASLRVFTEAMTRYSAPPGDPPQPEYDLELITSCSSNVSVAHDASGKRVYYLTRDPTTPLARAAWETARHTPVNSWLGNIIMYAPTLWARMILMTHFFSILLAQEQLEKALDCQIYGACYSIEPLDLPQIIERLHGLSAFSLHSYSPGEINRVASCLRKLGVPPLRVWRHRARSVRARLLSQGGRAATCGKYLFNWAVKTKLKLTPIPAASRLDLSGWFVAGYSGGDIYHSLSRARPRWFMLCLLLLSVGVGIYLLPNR

## CC(=O)OCOC(=O)CN(CC(=O)OCOC(C)=O)c1ccccc1OCCOc1ccccc1N(CC(=O)OCOC(C)=O)CC(=O)OCOC(C)=O [BAPTA-AM, 1,2-bis(2-aminophenoxy)ethane-N,N,N′-tetraacetic acid tetrakis acetoxymethyl ester]
[1]; SgPC2 cells, GO 24 h, 130-200 U/ml catalase or 2 μM BAPTA-AM
  effect on the suppression of HCV RNA by GO: alleviate the suppressive effect of GO
[2]; 2 μM BAPTA-AM pretreatment
  effect on the suppression of HCV RNA replication by H2O2 ([3H]uridine): completely removed the suppression
[2]
  amount of HCV RNA synthesized ([3H]uridine, actinomycin D): no significant effect
[3]
  effect on the suppression of in vitro HCV replication by H2O2: removed this suppression at both time points tested

## [Ca+2].[Cl-].[Cl-] [CaCl2]
[3]; added to untreated lysates before assay
  in vitro HCV RNA replication, agent added directly to the cytoplasmic lysates: could decrease
full-length NS5B; 0.1 and 1 μM
  in vitro de novo RNA synthesis by NS5B: only marginally suppressed
full-length NS5B; higher concentrations
  NS5B polymerase activity: enhanced the polymerase activity

## c1ccc2c(c1)[I+]c1ccccc1-2 [DPI, Diphenylene Iodonium, reference compound]
[1]
  effect on HCV RNA level / replication: significantly elevated

## N[C@@H](CCC(=O)N[C@@H](CS)C(=O)NCC(=O)O)C(=O)O [GSH, glutathione, reference compound]
JFH1 HCV (genotype 2a)
  restoration of HCV RNA levels suppressed by BSO: not able to restore HCV replication

## OO [H2O2, Hydrogen peroxide]
[1]
  HCV RNA (normalized to GAPDH mRNA), % of untreated control: 36.8±16.6%
  effect on HCV RNA replication after 30 min of treatment: significant suppression
  suppression of HCV RNA level compared with IFN-γ: as effective as 100 to 2500 U/ml IFN-γ
[1]; Hepatitis C virus, 24 h, read-out: IC50 of suppression of HCV RNA level
  IC50: ~25 µM
[4]; 100 μM H2O2, with BAPTA (2 μM BAPTA-AM pretreatment)
  AUC of [Ca^2+]i elevation: 128.4±82.3 Ca^2+/min
[4]; 100 μM H2O2, without BAPTA
  AUC of [Ca^2+]i elevation: 935.9±58.9 Ca^2+/min
[4]; H2O2 pretreatment 13 min, no extracellular calcium
  TG-induced calcium elevation after H2O2 pretreatment, % of control: 9.2±2.6%
[4]
  change in [Ca^2+]i: gradual rise
[4]; with 1.3 mM extracellular calcium
  AUC of peroxide-induced calcium elevation: 1278.5±109.5 Ca^2+/min
[4]; without extracellular calcium
  AUC of peroxide-induced calcium elevation: 1105.1±238.1 Ca^2+/min
[2]
  amount of HCV RNA synthesized ([3H]uridine, actinomycin D): significantly decreased
SgPC2 cells [5]; 30 min of treatment
  total ATP content, % of untreated control: 125.4±0.3%
SgPC2 cells [5]; 24 h of treatment
  total ATP content, % of untreated control: 97.3±8.25%
SgPC2 cells [6]
  mitochondrial membrane potential or apoptosis: no significant effect
JFH1 HCV (genotype 2a)
  intracellular and extracellular HCV RNA levels: significantly decreased
Genomic HCV RNA
  genomic HCV RNA, % of untreated control: 34.0±4.0%
IP3
  inositol 1,3-triphosphate (IP3) level: did not increase

## C/C=C(/C)C(=O)O[C@H]1C(C)=C2[C@H]([C@@H]1OC(=O)CCCCCCC)[C@@](C)(OC(C)=O)C[C@H](OC(=O)CCC)[C@@]1(O)[C@H]2OC(=O)[C@@]1(C)O [TG, thapsigargin, reference compound]
[4]; Homo sapiens, 400 nM TG pretreatment 10 min, no extracellular calcium, read-out: peroxide-induced calcium elevation after TG pretreatment, % of control
  activity at 0.4 µM: 58.3 ± 8.4%
[4]
  change in [Ca^2+]i: transient rise
[4]; no extracellular calcium, no H2O2 pretreatment
  AUC of TG-induced calcium response in control cells: 772.3±189.3 Ca^2+/min

## C[C@H](CCC(=O)O)C[C@H](C)C[C@H](C)C(=O)/C=C(\O)[C@H](C)C[C@H](C)C/C=C/[C@@H](C)[C@@H](O)[C@@H](C)[C@@H](O)C[C@@H]1CC[C@@](C)([C@H]2CC[C@@](C)([C@@H](C)O)O2)O1 [ionomycin]
[3]
  effect on the suppression of in vitro HCV replication by H2O2: significantly alleviated

## N.N.N.N.N.N.N.N.N.N.N.N.N.N.[Cl-].[Cl-].[Cl-].[Cl-].[Cl-].[Cl-].[O-2].[O-2].[Ru+3].[Ru+3].[Ru+4] [ruthenium red, reference compound]
[4]
  basal calcium or magnitude/kinetics of the peroxide-induced calcium elevation: no effect

## cyclosporin A [reference compound]
[4]
  basal calcium or magnitude/kinetics of the peroxide-induced calcium elevation: no effect
